Source: article PMC3523097 (Journal of medicinal chemistry, 2012)
Values joined by “and” are separate entries in the source; they are usually repeats but may differ in a detail not shown here. Equal entries are not always repeated. “Also recorded” adds a separate entry of the source. Where two headings read alike, the source gives them in different places. Non-standard residues stand in square brackets, D forms with d. Residues, ends and D or L forms follow the SMILES beside them. Dmt = Cc1cc(O)cc(C)c1C[C@H](N)C(=O)O; dCit = NC(=O)NCCC[C@@H](N)C(=O)O; Nle = CCCC[C@H](N)C(=O)O

Assays:
[1] = test system: CD-1 mice; test: Antinociception after s.c. administration, radiant heat tail-flick test; assay type: in vivo; details: mouse tail-flick test; for ED50 (95% confidence limits): at the time of peak effect
[2] = test system: mouse tissues (spleen, liver, lungs, heart, kidneys, serum); test: In vivo tissue biodistribution of [125I]-peptides; details: for Serum levels: 15 min after administration, rank in words
[3] = test system: CD-1 mice; test: Antinociception after i.p. administration, 55 °C tail withdrawal; assay type: in vivo, mouse; details: for Time of maximum antinociceptive activity post i.p. injection: mice; for Antinociceptive effect after i.p. injection, in words: Figure 3; for Antinociceptive activity, times higher than the antinociception of morphine: at the plateau decline phase
[4] = test system: mouse brain (blood-brain barrier); test: Blood-to-brain influx, multiple time regression of [125I]-peptides; details: for Vbr (brain distribution volume): [125I]-labelled, CD-1 mice, mean ± SEM
[5] = incubated in sheep blood; cited from earlier work
[6] = biological target: T1, MOR (Rattus norvegicus, UniProt P33535); test: MOR receptor binding, displacement of [3H]DAMGO from rat brain membranes; details: ratio of MOR/DOR/KOR Ki
T1 sequence (P33535 whole entry): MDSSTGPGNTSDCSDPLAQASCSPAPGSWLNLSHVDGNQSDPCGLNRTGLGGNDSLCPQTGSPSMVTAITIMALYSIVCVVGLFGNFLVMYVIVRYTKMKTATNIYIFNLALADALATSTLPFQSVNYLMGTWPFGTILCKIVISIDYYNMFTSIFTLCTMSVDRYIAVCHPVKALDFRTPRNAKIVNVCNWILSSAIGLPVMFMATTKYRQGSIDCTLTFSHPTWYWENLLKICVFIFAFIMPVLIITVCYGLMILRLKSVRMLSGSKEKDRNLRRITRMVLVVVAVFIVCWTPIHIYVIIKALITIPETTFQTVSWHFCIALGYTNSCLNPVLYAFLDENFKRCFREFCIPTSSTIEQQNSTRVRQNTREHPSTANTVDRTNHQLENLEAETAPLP

[7] = test system: DOR (mouse vas deferens, MVD); test: Mouse vas deferens; assay type: biochemical
[8] = test system: MOR (guinea pig ileum, GPI); test: Guinea pig ileum; assay type: biochemical
[9] = test system: DOR (mouse vas deferens, MVD); details: read-out: MVD (δ) IC50; cited from earlier work
[10] = biological target: T1, MOR; details: ratio of MOR/DOR/KOR Ki; cited from earlier work
[11] = test system: MOR (guinea pig ileum, GPI); details: read-out: GPI (μ) IC50; cited from earlier work
[12] = cited from earlier work

Molecule	Serum levels [2]	Vbr (brain distribution volume) [4] [µL/g]	Duration of antinociceptive action [1] [h]	Time of peak effect [1]	ED50 (95% confidence limits) [1]	Ki ratio μ/δ/κ [6]	further results
CN1CC[C@]23c4c5ccc(O)c4O[C@H]2[C@@H](O)C=C[C@H]3[C@H]1C5 [Morphine, reference compound]	–	–	–	–	–	–	Relative potency to Morphine ([1]; from ED50): 1
Cc1cc(O)cc(C)c1C[C@H](N)C(=O)N[C@H](CCCNC(=N)N)C(=O)N[C@@H](Cc1ccccc1)C(=O)N[C@@H](CCCCN)C(N)=O [Peptide 1, H-Dmt-D-Arg-Phe-Lys-NH2, reference compound]	highest	19.25 ± 1.02	6 to 7	2 h	0.15 (0.07-0.32) μmol/kg	–	Time of maximum antinociceptive activity post i.p. injection [3]: 60 min; t1/2 in sheep blood [5]: 108 min; Duration of antinociceptive action ([1]; listed as [Dmt^1]-DALDA): > 7 h
CCCC[C@H](NC(=O)[C@H](Cc1ccccc1)NC(=O)[C@@H](CCCN=C(N)N)NC(=O)[C@@H](N)Cc1c(C)cc(O)cc1C)C(N)=O [Peptide 9, H-Dmt-D-Arg-Phe-Nle-NH2] (H-[Dmt][dR]F[Nle]-NH2)	lowest	27.43 ± 4.80	–	–	–	–	–
CCCC[C@H](NC(=O)[C@H](Cc1ccccc1)NC(=O)[C@@H](CCCNC(=N)N)NC(=O)[C@@H](N)Cc1c(C)cc(O)cc1C)C(N)=O [Peptide 9, H-Dmt-D-Arg-Phe-Nle-NH2] (H-[Dmt][dR]F[Nle]-NH2)	–	–	–	–	>6 µmol/kg	1/66/70	Antinociceptive effect after i.p. injection, in words [3]: relatively low antinociceptive activity; Antinociceptive effect after s.c. administration, in words [1]: no dose-related antinociception; also recorded: failed to reach a 50% effect after s.c. administration of 6 μmol/kg
Cc1cc(O)cc(C)c1C[C@H](N)C(=O)N[C@H](CCCNC(N)=O)C(=O)N[C@@H](Cc1ccccc1)C(=O)N[C@@H](CCCCN)C(N)=O [Peptide 10, H-Dmt-D-Cit-Phe-Lys-NH2]	intermediate	27.12 ± 3.76	2 to 3	1 h	0.23 (0.10-0.55) μmol/kg	1/88/37	Time of maximum antinociceptive activity post i.p. injection [3]: 45 min
CCCC[C@H](NC(=O)[C@H](Cc1ccccc1)NC(=O)[C@@H](CCCNC(N)=O)NC(=O)[C@@H](N)Cc1c(C)cc(O)cc1C)C(N)=O [Peptide 11, H-Dmt-D-Cit-Phe-Nle-NH2] (H-[Dmt][dCit]F[Nle]-NH2)	–	–	–	–	–	1/5/125	–
Cc1cc(O)cc(C)c1C[C@H](N)C(=O)N[C@H](CCCNC(=N)N)C(=O)N[C@@H](Cc1ccccc1)C(=O)N(C)[C@@H](CCCCN)C(N)=O [Peptide 12, H-Dmt-D-Arg-Phe-NMeLys-NH2]	intermediate	21.99 ± 2.81	> 7	1 to 4 h and 2 h	0.13 (0.06-0.30) μmol/kg	1/1190/216	Antinociceptive activity, times higher than the antinociception of morphine [3]: 13 - 15; Time of maximum antinociceptive activity post i.p. injection [3]: 60 to 90 min
CCCC[C@@H](C(N)=O)N(C)C(=O)[C@H](Cc1ccccc1)NC(=O)[C@@H](CCCNC(=N)N)NC(=O)[C@@H](N)Cc1c(C)cc(O)cc1C [Peptide 13, H-Dmt-D-Arg-Phe-NMeNle-NH2]	–	–	–	–	–	1/62/55	–
Cc1cc(O)cc(C)c1C[C@H](N)C(=O)N[C@H](CCCNC(N)=O)C(=O)N[C@@H](Cc1ccccc1)C(=O)N(C)[C@@H](CCCCN)C(N)=O [Peptide 14, H-Dmt-D-Cit-Phe-NMeLys-NH2]	intermediate	17.13 ± 2.36	2 to 3	1 h	0.16 (0.07-0.36) μmol/kg	1/42/12	Antinociceptive activity, times higher than the antinociception of morphine [3]: 13 - 15; Time of maximum antinociceptive activity post i.p. injection [3]: 60 to 90 min
Cc1cc(O)cc(C)c1C[C@H](N)C(=O)N[C@H](CCCNC(=N)N)C(=O)N[C@H]1Cc2ccccc2CN([C@@H](CCCCN)C(N)=O)C1=O [Peptide 16, H-Dmt-D-Arg-Aba-Lys-NH2]	–	–	–	–	–	–	MVD (δ) IC25 ([7]; IC25 given instead of IC50): 64 (IC25) nM
CCCC[C@@H](C(N)=O)N1Cc2ccccc2C[C@H](NC(=O)[C@@H](CCCNC(=N)N)NC(=O)[C@@H](N)Cc2c(C)cc(O)cc2C)C1=O [Peptide 17, H-Dmt-D-Arg-Aba-Nle-NH2]	–	–	–	–	–	1/17/3	–
CCCC[C@@H](C(N)=O)N1Cc2ccccc2C[C@H](NC(=O)[C@@H](CCCNC(N)=O)NC(=O)[C@@H](N)Cc2c(C)cc(O)cc2C)C1=O [Peptide 19, H-Dmt-D-Cit-Aba-Nle-NH2]	–	–	–	–	–	1/3/12	DOR functional profile ([7]; in words): DOR full agonist; GPI (μ) IC35 ([8]; IC35 given instead of IC50): 0.78 (IC35) nM; MOR functional profile ([8]; in words): MOR partial agonist
Cc1cc(O)cc(C)c1C[C@H](N)C(=O)N[C@H](CCCNC(=N)N)C(=O)N[C@H]1Cc2ccccc2CN(CC(N)=O)C1=O [Peptide 20, H-Dmt-D-Arg-Aba-Gly-NH2, reference compound]	intermediate	24.01 ± 3.41	6 to 7	1 h	0.47 (0.18-1.2) μmol/kg	–	Tissue distribution (percentage of mass-corrected injected dose), in words ([2]; [125I]-peptide, mice, Figure 2): higher kidney uptake; IC50 [9]: 0.42 nM; Antinociceptive effect after i.p. injection, in words [3]: slow and shallow antinociceptive response; Ki ratio μ/δ/κ [10]: 1/4/787; IC50 [11]: 0.32 nM
C[C@@H](NC(=O)[C@@H](N)Cc1ccc(O)cc1)C(=O)N[C@@H](Cc1ccccc1)C(=O)NCC(=O)N[C@@H](Cc1ccc(O)cc1)C(=O)N1CCC[C@H]1C(=O)N[C@@H](CO)C(N)=O [dermorphin, Tyr-D-Ala-Phe-Gly-Tyr-Pro-Ser-NH2, reference compound]	–	–	–	–	–	–	Antinociceptive effect after i.p. injection, in words [3]: inability of dermorphin to induce a significant antinociceptive effect; mean influx transfer constant (mean Kin) ([4]; I-125 labelled control, over 15 minutes for dermorphin): 0.173 ± 0.137 µL/g/min
endomorphin-1	–	–	–	–	–	–	t1/2 in mouse plasma [12]: 4 to 7 min
endomorphin-2	–	–	–	–	–	–	t1/2 in mouse plasma [12]: 4 to 7 min
